Values quoted from earlier work as cited in patent US20220143119A1, “CROTON LECHLERI COMPOSITIONS FOR USE IN THE TREATMENT OF SKIN CANCER” (ALPHYN BIOLOGICS, LLC, priority 2019, published 2022).

System: human melanoma SK23

COc1ccc2c(=O)oc3c(OC)cc(CCN(C)C)c4c(=O)oc1c2c34 [taspine]
inhibition against human melanoma SK23: exhibits inhibition
